According to article PMC9481557, “Enzymatic synthesis of benzylisoquinoline alkaloids using a parallel cascade strategy and tyrosinase variants” (Nature Communications, 2022):

Legend:
EfTyrDC = molecular target: T1, EfTyrDC (Enterococcus faecalis, UniProt Q838D6); experiment: HPLC conversion; type: biochemical; conditions: PLP, HEPES pH 7.5, 37 °C, 6 h; coupled with CvTAm
T1 construct: gene tdc; recombinant in E. coli BL21(DE3)

NCCc1ccc(O)cc1 = experiment: cells, lysate or membranes; type: cell-based, Candidatus Nitrosopumilus salarius; conditions: apparent constant; N201S variant; copper enzyme; assay details in supplement
CvTAm = molecular target: T2, CvTAm (Chromobacterium violaceum, UniProt Q7NWG4); experiment: HPLC conversion; type: biochemical; conditions: amine donor; pyruvate acceptor, PLP, HEPES pH 7.5, 37 °C, 6 h
T2 construct: gene CV_2025; recombinant in E. coli BL21(DE3)
T2 sequence (Q7NWG4 entry or part of it): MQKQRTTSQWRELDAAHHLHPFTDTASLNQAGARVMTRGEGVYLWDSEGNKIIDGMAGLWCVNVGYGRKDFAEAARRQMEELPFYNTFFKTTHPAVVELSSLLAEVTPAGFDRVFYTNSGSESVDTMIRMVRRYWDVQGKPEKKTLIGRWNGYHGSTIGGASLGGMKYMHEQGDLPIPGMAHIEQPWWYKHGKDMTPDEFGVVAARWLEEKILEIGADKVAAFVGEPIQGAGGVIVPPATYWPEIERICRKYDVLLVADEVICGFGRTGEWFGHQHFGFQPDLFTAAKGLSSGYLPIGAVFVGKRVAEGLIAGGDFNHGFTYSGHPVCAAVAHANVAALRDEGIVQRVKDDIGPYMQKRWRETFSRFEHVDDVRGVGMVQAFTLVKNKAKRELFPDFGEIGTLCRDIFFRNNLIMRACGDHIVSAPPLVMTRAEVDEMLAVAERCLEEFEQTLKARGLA

T1 sequence (Q838D6 whole entry): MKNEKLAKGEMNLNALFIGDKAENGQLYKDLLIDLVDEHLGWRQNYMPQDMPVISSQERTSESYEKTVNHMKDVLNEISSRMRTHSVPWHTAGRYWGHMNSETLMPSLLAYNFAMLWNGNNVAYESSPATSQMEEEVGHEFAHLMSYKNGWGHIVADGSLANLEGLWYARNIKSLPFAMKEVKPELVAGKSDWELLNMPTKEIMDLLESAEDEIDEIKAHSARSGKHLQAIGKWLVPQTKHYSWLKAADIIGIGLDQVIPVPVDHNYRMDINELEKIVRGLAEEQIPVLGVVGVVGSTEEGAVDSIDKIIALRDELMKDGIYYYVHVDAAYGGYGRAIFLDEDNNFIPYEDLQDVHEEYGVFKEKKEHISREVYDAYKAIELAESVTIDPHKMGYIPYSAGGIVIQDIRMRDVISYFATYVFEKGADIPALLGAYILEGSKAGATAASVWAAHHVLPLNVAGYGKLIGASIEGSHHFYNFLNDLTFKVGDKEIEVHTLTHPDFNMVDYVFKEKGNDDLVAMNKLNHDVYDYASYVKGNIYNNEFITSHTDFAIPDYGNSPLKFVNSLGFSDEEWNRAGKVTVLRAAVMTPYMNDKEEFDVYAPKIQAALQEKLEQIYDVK

For `N[C@@H](Cc1cccc(O)c1)C(=O)O` [compound 9, meta-L-tyrosine], the HPLC conversion (EfTyrDC) was “All of the selected substrates were readily accepted by EfTyrDC and CvTAm”.
`N[C@@H](Cc1ccc(O)c(Cl)c1)C(=O)O` [compound 12, 3-Cl-L-tyrosine] was tested, and the HPLC conversion (EfTyrDC) was “All of the selected substrates were readily accepted by EfTyrDC and CvTAm”.
“CnTYR (Candidatus Nitrosopumilus salarius BD31; N201S)” gave a Km (NCCc1ccc(O)cc1) of 1780 µM and a kcat (NCCc1ccc(O)cc1) of 197.5 s⁻¹.
In the case of `NCCCc1ccccc1` [compound 14, 3-phenyl-1-propylamine], the HPLC conversion (CvTAm) is reported as “All of the selected substrates were readily accepted by EfTyrDC and CvTAm”.
